# Reference: ChEMBL document CHEMBL5212743, “Selectivity Literature for EUbOPEN Chemogenomics Library wave 3” (2023)
# pKd, pKi: −log10 of the molar value.
# What was measured:
# [1] = target: T1, Leukocyte tyrosine kinase receptor (Homo sapiens, UniProt P29376); test: Selectivity interaction (ScanMAX (DiscoverX, competition-binding assay)) EUB0000285b LTK
# [2] = target: T2, Serine/threonine-protein kinase 32C (Homo sapiens, UniProt Q86UX6); test: Selectivity interaction (ScanMAX (DiscoverX, competition-binding assay)) EUB0000285b STK32C
# T2 sequence (Q86UX6 whole entry): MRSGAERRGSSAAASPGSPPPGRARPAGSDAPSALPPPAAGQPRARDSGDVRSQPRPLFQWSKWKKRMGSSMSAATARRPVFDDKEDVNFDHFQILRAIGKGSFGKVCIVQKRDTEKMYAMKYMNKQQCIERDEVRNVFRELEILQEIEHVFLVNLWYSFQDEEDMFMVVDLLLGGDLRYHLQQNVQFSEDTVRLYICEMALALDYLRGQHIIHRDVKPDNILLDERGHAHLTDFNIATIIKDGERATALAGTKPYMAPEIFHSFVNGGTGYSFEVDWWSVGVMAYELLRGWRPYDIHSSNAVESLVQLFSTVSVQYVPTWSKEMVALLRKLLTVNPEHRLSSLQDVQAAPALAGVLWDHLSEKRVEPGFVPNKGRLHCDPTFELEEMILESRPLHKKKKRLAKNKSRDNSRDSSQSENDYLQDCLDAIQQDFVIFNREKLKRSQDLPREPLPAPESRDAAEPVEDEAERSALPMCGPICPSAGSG
# [3] = target: Testis-specific serine/threonine-protein kinase 1 (Homo sapiens) (UniProt Q9BXA7); test: Selectivity interaction (ScanMAX (DiscoverX)) EUB0000285b TSSK1B; conditions: at 1 µM
# Sequence of Testis-specific serine/threonine-protein kinase 1 (Homo sapiens) (Q9BXA7 whole entry): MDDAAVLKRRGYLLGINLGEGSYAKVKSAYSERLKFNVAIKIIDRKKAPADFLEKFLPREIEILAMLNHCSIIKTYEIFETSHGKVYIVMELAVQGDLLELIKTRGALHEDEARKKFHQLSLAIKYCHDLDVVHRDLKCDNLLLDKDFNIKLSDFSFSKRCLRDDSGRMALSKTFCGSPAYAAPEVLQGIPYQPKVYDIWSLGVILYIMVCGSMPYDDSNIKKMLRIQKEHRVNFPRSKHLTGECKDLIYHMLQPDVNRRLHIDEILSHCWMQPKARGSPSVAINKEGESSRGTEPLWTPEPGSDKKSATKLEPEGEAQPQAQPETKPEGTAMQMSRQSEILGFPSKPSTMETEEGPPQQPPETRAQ
# [4] = target: T3, Serine/threonine-protein kinase PAK 3 (Homo sapiens, UniProt O75914); test: Selectivity interaction (ScanMAX (DiscoverX)) EUB0000285b PAK3; conditions: at 1 µM
# Target sequence in this assay (O75914 whole entry, looked up): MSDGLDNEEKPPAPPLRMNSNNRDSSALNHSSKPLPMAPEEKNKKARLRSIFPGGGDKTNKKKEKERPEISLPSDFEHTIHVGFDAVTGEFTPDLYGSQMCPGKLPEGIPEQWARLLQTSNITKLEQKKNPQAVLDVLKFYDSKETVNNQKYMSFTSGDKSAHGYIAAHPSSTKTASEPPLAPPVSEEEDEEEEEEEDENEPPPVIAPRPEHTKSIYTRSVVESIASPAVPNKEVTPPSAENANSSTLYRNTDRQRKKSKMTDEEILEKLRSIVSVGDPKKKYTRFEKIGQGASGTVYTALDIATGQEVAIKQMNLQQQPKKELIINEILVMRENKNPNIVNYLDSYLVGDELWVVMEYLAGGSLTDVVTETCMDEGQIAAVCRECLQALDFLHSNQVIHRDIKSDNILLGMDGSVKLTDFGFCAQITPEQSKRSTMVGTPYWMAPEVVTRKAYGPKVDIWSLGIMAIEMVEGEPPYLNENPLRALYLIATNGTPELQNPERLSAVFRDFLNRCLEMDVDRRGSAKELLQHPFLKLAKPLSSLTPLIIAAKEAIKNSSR
# [5] = target: T4, Serine/threonine-protein kinase LATS1 (Homo sapiens) (UniProt O95835); test: Selectivity interaction (ScanMAX (DiscoverX)) EUB0000285b LATS1; conditions: at 1 µM
# T4 sequence (whole entry): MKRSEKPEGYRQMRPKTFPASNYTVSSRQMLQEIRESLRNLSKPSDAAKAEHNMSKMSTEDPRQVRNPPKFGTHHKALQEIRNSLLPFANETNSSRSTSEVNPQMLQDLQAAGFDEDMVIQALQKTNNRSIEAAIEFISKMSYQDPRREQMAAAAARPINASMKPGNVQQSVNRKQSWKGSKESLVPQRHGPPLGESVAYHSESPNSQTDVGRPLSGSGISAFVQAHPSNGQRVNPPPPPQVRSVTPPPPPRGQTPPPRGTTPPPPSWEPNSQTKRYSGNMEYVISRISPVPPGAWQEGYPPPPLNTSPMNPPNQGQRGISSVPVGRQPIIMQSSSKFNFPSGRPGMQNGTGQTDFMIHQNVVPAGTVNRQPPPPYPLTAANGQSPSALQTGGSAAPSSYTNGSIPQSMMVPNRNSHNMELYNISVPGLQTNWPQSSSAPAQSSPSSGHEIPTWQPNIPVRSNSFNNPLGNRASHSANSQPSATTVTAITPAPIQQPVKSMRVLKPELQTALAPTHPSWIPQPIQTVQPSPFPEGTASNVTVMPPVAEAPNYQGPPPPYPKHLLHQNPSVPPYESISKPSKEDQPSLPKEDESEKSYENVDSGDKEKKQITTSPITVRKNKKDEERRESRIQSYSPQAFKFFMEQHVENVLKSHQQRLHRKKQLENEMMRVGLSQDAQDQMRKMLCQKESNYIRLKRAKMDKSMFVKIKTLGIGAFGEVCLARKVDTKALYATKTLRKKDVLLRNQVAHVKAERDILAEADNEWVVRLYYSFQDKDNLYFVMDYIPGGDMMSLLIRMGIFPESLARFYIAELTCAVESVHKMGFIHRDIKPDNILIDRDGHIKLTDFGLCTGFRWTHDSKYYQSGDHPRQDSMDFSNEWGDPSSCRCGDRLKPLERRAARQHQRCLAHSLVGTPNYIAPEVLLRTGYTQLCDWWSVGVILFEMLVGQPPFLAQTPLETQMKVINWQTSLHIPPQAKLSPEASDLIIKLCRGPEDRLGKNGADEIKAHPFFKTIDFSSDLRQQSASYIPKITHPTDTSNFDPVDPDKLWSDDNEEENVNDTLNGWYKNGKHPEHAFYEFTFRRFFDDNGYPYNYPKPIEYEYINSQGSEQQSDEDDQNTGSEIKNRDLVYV
# [6] = target: Serine/threonine-protein kinase 4 (Homo sapiens) (UniProt Q13043); test: Selectivity interaction (ScanMAX (DiscoverX)) EUB0000285b STK4; conditions: at 1 µM
# Sequence of Serine/threonine-protein kinase 4 (Homo sapiens) (Q13043 whole entry): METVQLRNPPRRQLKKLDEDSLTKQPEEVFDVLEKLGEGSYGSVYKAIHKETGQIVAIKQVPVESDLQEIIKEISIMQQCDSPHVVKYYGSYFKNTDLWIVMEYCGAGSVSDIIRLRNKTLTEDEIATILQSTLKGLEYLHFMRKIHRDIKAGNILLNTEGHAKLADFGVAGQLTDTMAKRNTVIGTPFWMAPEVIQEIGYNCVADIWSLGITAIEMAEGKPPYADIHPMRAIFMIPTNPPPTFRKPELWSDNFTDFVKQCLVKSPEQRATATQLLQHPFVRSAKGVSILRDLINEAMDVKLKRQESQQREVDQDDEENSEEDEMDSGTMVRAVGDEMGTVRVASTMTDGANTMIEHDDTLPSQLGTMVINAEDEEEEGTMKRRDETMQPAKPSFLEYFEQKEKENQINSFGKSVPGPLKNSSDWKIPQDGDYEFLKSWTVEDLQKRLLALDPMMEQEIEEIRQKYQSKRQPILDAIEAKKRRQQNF
# [7] = target: T1, Leukocyte tyrosine kinase receptor; test: Selectivity interaction (ScanMAX (DiscoverX)) EUB0000285b LTK; conditions: at 1 µM
# [8] = target: T2, Serine/threonine-protein kinase 32C; test: Selectivity interaction (ScanMAX (DiscoverX)) EUB0000285b STK32C; conditions: at 1 µM
# [9] = target: T3, Serine/threonine-protein kinase PAK 3; test: Selectivity interaction (ScanMAX (DiscoverX, competition-binding assay)) EUB0000285b PAK3
# Target sequence in this assay (O75914 whole entry): as the sequence (O75914 whole entry, looked up) above
# [10] = target: Serine/threonine-protein kinase 4 (Homo sapiens, UniProt Q13043); test: Selectivity interaction (ScanMAX (DiscoverX, competition-binding assay)) EUB0000285b STK4
# Sequence of Serine/threonine-protein kinase 4 (Q13043 whole entry): as the sequence (Q13043 whole entry) above
# [11] = target: Serine/threonine-protein kinase LATS1 (Homo sapiens, UniProt O95835); test: Selectivity interaction (ScanMAX (DiscoverX, competition-binding assay)) EUB0000285b LATS1
# [12] = target: Testis-specific serine/threonine-protein kinase 1 (Homo sapiens, UniProt Q9BXA7); test: Selectivity interaction (ScanMAX (DiscoverX, competition-binding assay)) EUB0000285b TSSK1B
# Sequence of Testis-specific serine/threonine-protein kinase 1 (Q9BXA7 whole entry): as the sequence (Q9BXA7 whole entry) above
# [13] = target: Alpha-2A adrenergic receptor (Homo sapiens, UniProt P08913); test: Selectivity interaction (GPCR panel (PDSP screen)) EUB0000327a ADRA2A
# Sequence of Alpha-2A adrenergic receptor (P08913 whole entry): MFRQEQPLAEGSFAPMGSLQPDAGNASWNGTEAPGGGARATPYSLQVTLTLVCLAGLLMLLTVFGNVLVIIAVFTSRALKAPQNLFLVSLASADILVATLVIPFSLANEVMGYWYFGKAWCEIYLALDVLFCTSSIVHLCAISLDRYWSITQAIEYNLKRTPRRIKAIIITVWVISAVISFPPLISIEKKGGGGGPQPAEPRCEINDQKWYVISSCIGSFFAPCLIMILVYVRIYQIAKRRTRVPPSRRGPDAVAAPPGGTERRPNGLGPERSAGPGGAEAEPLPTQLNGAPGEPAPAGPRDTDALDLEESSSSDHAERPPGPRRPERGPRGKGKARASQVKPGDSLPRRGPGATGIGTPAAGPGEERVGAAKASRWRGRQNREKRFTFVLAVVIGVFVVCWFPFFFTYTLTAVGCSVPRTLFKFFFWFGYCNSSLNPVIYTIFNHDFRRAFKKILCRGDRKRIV
# [14] = target: Sodium-dependent dopamine transporter (Homo sapiens, UniProt Q01959); test: Selectivity interaction (GPCR panel (PDSP screen)) EUB0000327a SLC6A3
# Sequence of Sodium-dependent dopamine transporter (Q01959 whole entry): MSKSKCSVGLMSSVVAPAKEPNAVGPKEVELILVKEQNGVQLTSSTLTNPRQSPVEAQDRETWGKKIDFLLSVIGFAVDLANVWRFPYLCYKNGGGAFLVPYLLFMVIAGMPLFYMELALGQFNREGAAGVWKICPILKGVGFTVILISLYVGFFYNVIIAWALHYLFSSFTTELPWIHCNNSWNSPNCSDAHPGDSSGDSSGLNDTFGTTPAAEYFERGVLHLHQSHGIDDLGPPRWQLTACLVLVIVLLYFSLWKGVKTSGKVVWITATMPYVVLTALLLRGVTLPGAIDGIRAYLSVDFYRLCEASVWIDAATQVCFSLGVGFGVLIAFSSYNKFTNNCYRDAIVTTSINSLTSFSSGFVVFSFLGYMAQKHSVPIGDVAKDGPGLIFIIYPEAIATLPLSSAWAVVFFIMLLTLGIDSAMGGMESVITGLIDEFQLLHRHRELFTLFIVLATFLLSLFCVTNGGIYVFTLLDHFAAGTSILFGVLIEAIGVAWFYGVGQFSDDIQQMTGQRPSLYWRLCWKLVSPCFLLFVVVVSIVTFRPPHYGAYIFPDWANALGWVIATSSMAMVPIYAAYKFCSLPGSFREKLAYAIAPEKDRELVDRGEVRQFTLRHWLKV
# T1 sequence (P29376 whole entry): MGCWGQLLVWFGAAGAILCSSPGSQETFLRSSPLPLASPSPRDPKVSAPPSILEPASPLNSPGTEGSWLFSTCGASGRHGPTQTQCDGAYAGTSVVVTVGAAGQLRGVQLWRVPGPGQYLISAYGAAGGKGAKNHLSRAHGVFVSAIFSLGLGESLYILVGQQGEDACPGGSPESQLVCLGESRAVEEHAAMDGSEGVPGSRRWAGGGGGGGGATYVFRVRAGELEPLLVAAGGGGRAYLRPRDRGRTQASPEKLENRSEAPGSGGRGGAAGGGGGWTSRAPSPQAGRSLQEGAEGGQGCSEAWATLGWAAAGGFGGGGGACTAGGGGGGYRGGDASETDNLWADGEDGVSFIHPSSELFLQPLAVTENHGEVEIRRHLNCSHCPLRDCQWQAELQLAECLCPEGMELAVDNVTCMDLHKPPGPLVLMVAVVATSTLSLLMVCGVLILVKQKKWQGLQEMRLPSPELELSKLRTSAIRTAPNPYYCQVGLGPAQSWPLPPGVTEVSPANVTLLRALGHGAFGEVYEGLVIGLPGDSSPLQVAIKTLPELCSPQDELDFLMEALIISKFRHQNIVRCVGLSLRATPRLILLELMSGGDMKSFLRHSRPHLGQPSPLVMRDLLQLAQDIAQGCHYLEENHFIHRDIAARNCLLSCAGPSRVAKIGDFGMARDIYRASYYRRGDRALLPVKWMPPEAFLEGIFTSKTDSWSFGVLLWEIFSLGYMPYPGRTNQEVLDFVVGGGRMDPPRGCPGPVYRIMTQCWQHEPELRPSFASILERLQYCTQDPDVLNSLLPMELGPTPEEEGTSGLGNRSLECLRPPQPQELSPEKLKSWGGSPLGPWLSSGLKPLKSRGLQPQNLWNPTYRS
SMILES,pKd [1],pKd [2],% of control [3],% of control [4],% of control [5],% of control [6],% of control [7],% of control [8],pKd [9],pKd [10],pKd [11],pKd [12],pKi [13],pKi [14]
O=C(NCc1ccccc1)c1ccc(S(=O)(=O)NCc2ccccc2)cc1,< 5.00,< 5.00,0%,0%,8.6%,0%,0%,0%,< 5.00,< 5.00,< 5.00,< 5.00,–,–
O=C(NNS(=O)(=O)c1ccccc1)c1cc(-c2ccnnc2)ccc1F [WM-2474],–,–,–,–,–,–,–,–,–,–,–,–,< 5.00,< 5.00
